Reference: patent US10202378B2, “Therapeutic compounds and uses thereof” (GENENTECH, INC., priority 2015, dated 2019)

What was measured:
TAF1-BD1 = TAF1-BD1 (Homo sapiens, UniProt P21675); experiment: TAF1-BD1 TR-FRET Binding Assay; settings: read-out: TAF1-BD1 HTRF IC50
Experimental: IC50 Measurements for Inhibitors Using TAF1-BD1 TR-FRET Binding Assay
His/Flag epitope tagged TAF1-BD11381-1497 was cloned, expressed, and purified to homogeneity. TAF1-BD binding and inhibition was assessed by monitoring the engagement of a biotinylated small molecule compound 1000 with the target using the TR-FRET assay technology (Perkin-Elmer). Specifically, in a 384 well ProxiPlate, TAF1-BDI (0.08 uM final) in 50 mM HEPES (pH 7.5; final), 50 mM NaCl (final), 1 mM TCEP (final), 0.1 mg/mL BSA (final), and 0.069 mM Brij-35 (final) was added either in the presence of DMSO (final 0.2% DMSO) or compound dilution series in DMSO. After a 10 minute incubation at room temperature, biotin-ligand (0.08 uM final) was added. After 10 minutes incubation at room temperature, a mixture Eu-W1024 Anti-6×His antibody (Perkin Elmer ADO 110) and SureLight™ Streptavidin-Allophycocyanin (SA-APC, Perkin Elmer CR130-100) were added to final concentrations of 0.2 nM antibody and 0.05 uM SA-APC, respectively. After forty minutes of equilibration at room temperature, the plates were read on an Envision instrument and IC50s calculated using a four parameter logistic model (XLFIT).

TAF1-BD2 = TAF1-BD2 (Homo sapiens, UniProt P21675); experiment: TAF1-BD2 TR-FRET Binding Assay; settings: read-out: TAF1-BD2 HTRF IC50
Experimental: IC50 Measurements for Inhibitors Using TAF1-BD2 TR-FRET Binding Assay
His/Flag epitope tagged TAF1-BD21504-1635 was cloned, expressed, and purified to homogeneity. TAF1-BD2 binding and inhibition was assessed by monitoring the engagement of a biotinylated small molecule compound 1000 with the target using the TR-FRET assay technology (Perkin-Elmer). Specifically, in a 384 well ProxiPlate, TAF1-BD2 (0.012 uM final) in 50 mM HEPES (pH 7.5; final), 50 mM NaCl (final), 1 mM TCEP (final), 0.1 mg/mL BSA (final), and 0.069 mM Brij-35 (final) was added either in the presence of DMSO (final 0.2% DMSO) or compound dilution series in DMSO. After a 10 minute incubation at room temperature, biotin-ligand (0.04 uM final) was added. After 10 minutes incubation at room temperature, a mixture Eu-W1024 Anti-6×His antibody (Perkin Elmer AD0110) and SureLight™ Streptavidin-Allophycocyanin (SA-APC, Perkin Elmer CR130-100) were added to a final concentration of 0.2 nM antibody and 0.025 uM SA-APC, respectively. After forty minutes of equilibration at room temperature, the plates were read on an Envision instrument and IC50s calculated using a four parameter logistic model (XLFIT).

| Compound | IC50 (TAF1-BD1) [nM] | IC50 (TAF1-BD2) [nM] |
| --- | --- | --- |
| Cc1ccccc1COC(=O)c1c(C)[nH]c2c(=O)n(C)cc(C#CC(O)(c3ccccc3)C(F)(F)F)c12 (centres unmarked) [Example 108, o-tolylmethyl 2,6-dimethyl-7-oxo-4-(4,4,4-trifluoro-3-hydroxy-3-phenyl-but-1-ynyl)-1H-pyrrolo[2,3-c]pyridine-3-carboxylate] | 3350 | 1260 |
| CCOC(=O)c1c[nH]c2c(=O)n(C)cc(C#CC(C)(C)O)c12 [Example 53, ethyl 4-(3-hydroxy-3-methyl-but-1-ynyl)-6-methyl-7-oxo-1H-pyrrolo[2,3-c]pyridine-3-carboxylate] | 859 | 95.2 |
| CCOC(=O)c1c(C)[nH]c2c(=O)n(C)cc(C#CC(C)(O)C3CC3)c12 (single isomer, unassigned) [Example 92b, ethyl 4-(3-cyclopropyl-3-hydroxy-but-1-ynyl)-2,6-dimethyl-7-oxo-1H-pyrrolo[2,3-c]pyridine-3-carboxylate] | 1090 | 230 |
| C=CCCn1cc(C#CC(C)(C)C(N)=O)c2c(C(=O)OCC)c(C)[nH]c2c1=O [Example 48, ethyl 4-(4-amino-3,3-dimethyl-4-oxo-but-1-ynyl)-6-but-3-enyl-2-methyl-7-oxo-1H-pyrrolo[2,3-c]pyridine-3-carboxylate] | 1280 | 312 |
| CC(=O)NCCC(C)(C)OC(=O)c1c(C)[nH]c2c(=O)n(C)cc(C#CC(C)(C)O)c12 [Example 164, (3-acetamido-1,1-dimethyl-propyl) 4-(3-hydroxy-3-methyl-but-1-ynyl)-2,6-dimethyl-7-oxo-1H-pyrrolo[2,3-c]pyridine-3-carboxylate] | 514 | 48.5 |
| CCOC(=O)c1c(C)[nH]c2c(=O)n(C)cc(C#Cc3ccccc3F)c12 [Example 59, ethyl 4-[2-(2-fluorophenyl)ethynyl]-2,6-dimethyl-7-oxo-1H-pyrrolo[2,3-c]pyridine-3-carboxylate] | > 2220 | 56.2 |
| Cc1[nH]c2c(=O)n(C)cc(C#CC(C)(C)O)c2c1C(=O)OCC(C)(C)C [Example 150, 2,2-dimethylpropyl 4-(3-hydroxy-3-methyl-but-1-ynyl)-2,6-dimethyl-7-oxo-1H-pyrrolo[2,3-c]pyridine-3-carboxylate] | 93.6 | 30.4 |
| CCOC(=O)c1c(C)[nH]c2c(=O)n(CC)cc(C#CC(C)(C)O)c12 [Example 50, ethyl 6-ethyl-4-(3-hydroxy-3-methyl-but-1-ynyl)-2-methyl-7-oxo-1H-pyrrolo[2,3-c]pyridine-3-carboxylate] | 9870 | 450 |
| CCOC(=O)c1c(C)[nH]c2c(=O)n(C)cc(C#CC(C)(O)CCc3ccccc3)c12 (centres unmarked) [Example 23, ethyl 4-(3-hydroxy-3-methyl-5-phenyl-pent-1-ynyl)-2,6-dimethyl-7-oxo-1H-pyrrolo[2,3-c]pyridine-3-carboxylate] | 182 | 58.6 |
| CCOC(=O)c1c(C)[nH]c2c(=O)n(C)cc(C#CC(O)(c3cccnc3)C(F)(F)F)c12 (centres unmarked) [Example 1, ethyl 2,6-dimethyl-7-oxo-4-(4,4,4-trifluoro-3-hydroxy-3-(3-pyridyl)but-1-ynyl)-1H-pyrrolo[2,3-c]pyridine-3-carboxylate] | 312 | 80.4 |
| Cc1cc([C@](C)(O)C#Cc2cn(C)c(=O)c3[nH]c(C)c(-c4nnc(C(C)C)o4)c23)no1 [Example 194, 4-[(3R)-3-hydroxy-3-(5-methylisoxazol-3-yl)but-1-ynyl]-3-(5-isopropyl-1,3,4-oxadiazol-2-yl)-2,6-dimethyl-1H-pyrrolo[2,3-c]pyridin-7-one] | 244 | 69.1 |
| Cc1[nH]c2c(=O)n(C)cc(C#CC(C)(C)O)c2c1C(=O)NC(C)C [Example 169, 4-(3-hydroxy-3-methyl-but-1-ynyl)-N-isopropyl-2,6-dimethyl-7-oxo-1H-pyrrolo[2,3-c]pyridine-3-carboxamide] | 5310 | 2670 |
| Cc1[nH]c2c(=O)n(C)cc(C#CC(C)(C)O)c2c1C(=O)OCc1ccccc1 [Example 103, Benzyl 4-(3-hydroxy-3-methyl-but-1-ynyl)-2,6-dimethyl-7-oxo-1H-pyrrolo[2,3-c]pyridine-3-carboxylate] | 151 | 34.5 |
| Cc1[nH]c2c(=O)n(C)cc(C#CC(O)(c3ccccc3)C(F)(F)F)c2c1C(=O)OCC(C)C (centres unmarked) [Example 130, isobutyl 2,6-dimethyl-7-oxo-4-(4,4,4-trifluoro-3-hydroxy-3-phenyl-but-1-ynyl)-1H-pyrrolo[2,3-c]pyridine-3-carboxylate] | 1540 | 280 |

Now from value to molecule:

| IC50 (TAF1-BD1) [nM] | IC50 (TAF1-BD2) [nM] | Compound |
| --- | --- | --- |
| 451 | 110 | Cc1[nH]c2c(=O)n(C)cc(C#CC(C)(O)C3CC3)c2c1-c1nnc(C(C)(C)O)o1 (centres unmarked) [Example 172, 4-(3-cyclopropyl-3-hydroxy-but-1-ynyl)-3-(5-(1-hydroxy-1-methyl-ethyl)-1,3,4-oxadiazol-2-yl)-2,6-dimethyl-1H-pyrrolo[2,3-c]pyridin-7-one] |
| 2000 | 187 | CCOC(=O)c1c(C)[nH]c2c(=O)n(C)cc(C#C[C@@H]3CCCC[C@H]3O)c12 (stereo in doubt) [Example 84, ethyl 4-[2-(2-hydroxycyclohexyl)ethynyl]-2,6-dimethyl-7-oxo-1H-pyrrolo[2,3-c]pyridine-3-carboxylate] |
| 804 | 523 | CCOC(=O)c1c(C)[nH]c2c(=O)n(C)cc(C#CC(C)(C)NC(C)=O)c12 [Example 22, ethyl 4-(3-acetamido-3-methyl-but-1-ynyl)-2,6-dimethyl-7-oxo-1H-pyrrolo[2,3-c]pyridine-3-carboxylate] |
| 210 | 61 | CCOC(=O)c1c(C)[nH]c2c(=O)n(C)cc(C#C[C@@](C)(O)c3cc(C)no3)c12 [Example 69, ethyl 4-[(3R)-3-hydroxy-3-(3-methylisoxazol-5-yl)but-1-ynyl]-2,6-dimethyl-7-oxo-1H-pyrrolo[2,3-c]pyridine-3-carboxylate] |
| 123 | 40.1 | Cc1[nH]c2c(=O)n(C)cc(C#CC(C)(O)C3CC3)c2c1C(=O)OCC(C)C (centres unmarked) [Example 126, isobutyl 4-(3-cyclopropyl-3-hydroxy-but-1-ynyl)-2,6-dimethyl-7-oxo-1H-pyrrolo[2,3-c]pyridine-3-carboxylate] |
| 727 | 68.4 | Cc1[nH]c2c(=O)n(C)cc(C#CC(C)(O)CO)c2c1C(=O)OCC(C)C (centres unmarked) [Example 127, isobutyl 4-(3,4-dihydroxy-3-methyl-but-1-ynyl)-2,6-dimethyl-7-oxo-1H-pyrrolo[2,3-c]pyridine-3-carboxylate] |
| 7510 | 912 | CCOC(=O)c1c(C)[nH]c2c(=O)n(C)cc(C#CC(O)(c3cccc(-c4ccccc4C)c3)C(F)(F)F)c12 (centres unmarked) [Example 102, ethyl 2,6-dimethyl-7-oxo-4-[4,4,4-trifluoro-3-hydroxy-3-[3-(o-tolyl)phenyl]but-1-ynyl]-1H-pyrrolo[2,3-c]pyridine-3-carboxylate] |
| > 20000 | 181 | C=CCCn1cc(C#CC(C)(O)CC#N)c2c(C(=O)OCC)c(C)[nH]c2c1=O (centres unmarked) [Example 72, ethyl 6-but-3-enyl-4-(4-cyano-3-hydroxy-3-methyl-but-1-ynyl)-2-methyl-7-oxo-1H-pyrrolo[2,3-c]pyridine-3-carboxylate] |
| 2230 | 133 | C=CCCn1cc(C#CC(C)(O)C2CC2)c2c(C(=O)OCC)c(C)[nH]c2c1=O (centres unmarked) [Example 46, ethyl 6-but-3-enyl-4-(3-cyclopropyl-3-hydroxy-but-1-ynyl)-2-methyl-7-oxo-1H-pyrrolo[2,3-c]pyridine-3-carboxylate] |
| 112 | 50.2 | Cc1cc([C@](C)(O)C#Cc2cn(C)c(=O)c3[nH]c(C)c(C(=O)OCC(C)C)c23)no1 [Example 158, isobutyl 4-[(3R)-3-hydroxy-3-(5-methylisoxazol-3-yl)but-1-ynyl]-2,6-dimethyl-7-oxo-1H-pyrrolo[2,3-c]pyridine-3-carboxylate] |
| 249 | 47.1 | Cc1[nH]c2c(=O)n(C)cc(C#CC(O)(c3ccccc3)C(F)(F)F)c2c1-c1nnc(C2CC2)o1 (centres unmarked) [Example 180, 3-(5-cyclopropyl-1,3,4-oxadiazol-2-yl)-2,6-dimethyl-4-(4,4,4-trifluoro-3-hydroxy-3-phenyl-but-1-ynyl)-1H-pyrrolo[2,3-c]pyridin-7-one] |
